Consider 25 compounds from patent publication US20230067159A1, “ROR-GAMMA-T INHIBITOR, PREPARATION METHOD THEREOF AND USE THEREOF” (priority 2020, published 2023).

pIC50: −log10 of the molar value.

One may read the pIC50 as −log10 of the IC50, conventionally taken in molar units. Higher therefore signals a low IC50.

In the assay the target is T1, RORγ (Homo sapiens, UniProt P51449).
T1 construct: The concentration of B-RORγ LBD was 40 nM
T1 sequence (P51449 269-508 limits assumed): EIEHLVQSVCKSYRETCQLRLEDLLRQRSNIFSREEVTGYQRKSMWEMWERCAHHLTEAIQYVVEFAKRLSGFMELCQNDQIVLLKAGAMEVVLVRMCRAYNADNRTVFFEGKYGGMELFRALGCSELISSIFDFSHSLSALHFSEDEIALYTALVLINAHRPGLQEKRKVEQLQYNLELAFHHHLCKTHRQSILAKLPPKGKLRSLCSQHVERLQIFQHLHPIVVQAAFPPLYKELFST
The assay is described as follows: Fluorescence resonance energy transfer (FRET) test, B-RORγ LBD / Biotin-SRC1. The format is biochemical. The protocol:
Biological Example 1 Fluorescence Resonance Energy Transfer (FRET) Test
(1) Preparation of RORγ Test Buffer and 10 mM of DTT
100 mL of 1× Basic test buffer (HEPES (pH 7.4), 100 mM NaCl, 0.01% BSA) was prepared, and 154.25 mg of DTT was added. The mixture was well mixed.
(2) Preparation of Compound with Gradient Concentration
a. Standard compound was prepared: Standard compound was diluted with 100% DMSO to 2.5 mM, then diluted 3-fold with 11 serial dilutions to a final concentration of […];
b. Test compound was prepared referring to the standard compound.
(3) Preparation of 1× Protein Solution Mixture
a. Preparation of the desired amount of 2× B-RORγ LBD/SA-APC protein mixture: The concentration of B-RORγ LBD was 40 nM, and the concentration of SA-APC was 20 nM. They were mixed by gently inversion, and incubated at room temperature for 15 minutes. Then 400 nM of biotin was added. The mixture was mixed by gently inversion, and incubated at room temperature for 10 minutes;
b. Preparation of the desired amount of 2× Biotin-SRC1/SA-eu protein mixture: The concentration of Bioin-SRC1 was 40 nM, and the concentration of SA-eu was 20 nM. They were mixed by gently inversion, and incubated at room temperature for 15 minutes. Then 200 nM of biotin was added. The mixture was mixed by gently inversion, and incubated at room temperature for 10 minutes;
c. The protein mixtures prepared in step a and step b were mixed at a ratio of 1:1, and incubated at room temperature for 5 minutes;
d. 25 μL of the mixture from step c was added to the 384-well plate containing the test compound;
e. The mixture was centrifuged at 1000 rpm for one minute;
f. The mixture was incubated for 1 hour at room temperature.
(4) Data Collection and Calculation
After incubation at room temperature for 1 hour, the fluorescence values at 665 nm and 615 nm were measured with an EnVision plate reader, and the inhibition rate was calculated.
Inhibition rate %)=[(X−Min)/(Max−Min)]×100%
X is the fluorescence value ratio of “665/615” of the test compound; Min is the average value of “665/615” of the DMSO blank control; Max is the average value of “665/615” of the 10 μM SRC.
In turn, `CCS(=O)(=O)c1ccc([C@H](CCO)NC(=O)c2ccc(N3CC(Oc4ccc(OC(F)F)cc4)C[C@H]3COC(F)F)cc2)cc1` (stereo in doubt) [Example 114, 4-((2S,4S)-2-((difluoromethoxy)methyl)-4-(4-(difluoromethoxy)phenoxy)pyrrolidin-1-yl)-N—((S)-1-(4-(ethylsulfonyl)phenyl)-3-hydroxypropyl)benzamide] gave a pIC50 of 8.70. In the case of `CCS(=O)(=O)c1ccc([C@H](CCO)NC(=O)c2ccc(N3CC(Oc4ccc(OC(F)(F)F)cc4)C[C@H]3COC(F)(F)F)cc2)cc1` (stereo in doubt) [Example 118, N—((S)-1-(4-(ethylsulfonyl)phenyl)-3-hydroxypropyl)-4-((2S,4S)-2-((trifluoromethoxy)methyl)-4-(4-(trifluoromethoxy)phenoxy)pyrrolidin-1-yl)benzamide] it was 8.10.

`CCS(=O)(=O)c1ccc(CC(=O)Nc2ccc(N3CCC(Cc4ccc(C(F)(F)F)cc4)C3)cc2)cc1` (stereo not shown) [Example 1, 2-(4-(Ethylsulfonyl)phenyl)-N-(4-(3-(4-(trifluoromethyl)benzyl)pyrrolidin-1-yl)phenyl) acetamide]: the negative-log IC50 (pIC50) is 7.92. As for `CCS(=O)(=O)c1ccc(CNC(=O)c2ccc(N3CCC(Cc4ccc(C(F)(F)F)cc4)C3)cc2)cc1` (stereo not shown) [Example 2], the negative logarithm of the IC50 (pIC50) was 7.85. In turn, `CCS(=O)(=O)c1ccc(CC(=O)Nc2ccc(C3CN(Cc4ccc(C(F)(F)F)cc4)CC3C)cc2)cc1` (stereo not shown) [Example 5, 2-(4-(Ethylsulfonyl)phenyl)-N-(4-(4-methyl-1-(4-(trifluoromethyl)benzyl)pyrrolidin-3-yl)phenyl)acetamide] gave a negative logarithm of the IC50 (pIC50) of 7.33. In turn, `CCS(=O)(=O)c1ccc([C@H](CO)NC(=O)c2ccc(N3CCC(Cc4ccc(C(F)(F)F)cc4)C3)cc2)cc1` (stereo partly drawn) [Example 6, N—((R)-1-(4-(ethylsulfonyl)phenyl)-2-hydroxyethyl)-4-(3-(4-(trifluoromethyl)benzyl)pyrrolidin-1-yl)benzamide] gave a negative logarithm of the IC50 (pIC50) of 8.05. `CCS(=O)(=O)c1ccc(CNC(=O)c2ccc(N3CC(Cc4ccc(C(F)(F)F)cc4)C[C@H]3COC)cc2)cc1` (stereo partly drawn) [Example 7, N-(4-(ethylsulfonyl)benzyl)-4-((2S)-2-(methoxymethyl)-4-(4-(trifluoromethyl)benzyl)pyrrolidin-1-yl)benzamide] gave a pIC50 of 8.07. In the case of `CCS(=O)(=O)c1ccc(CNC(=O)c2ccc(N3CCC(Oc4ccc(C(F)(F)F)cc4)C3)cc2)cc1` (stereo not shown) [Example 9, N-(4-(ethylsulfonyl)benzyl)-4-(3-(4-(trifluoromethyl)phenoxy)pyrrolidin-1-yl)benzamide] it was 7.92; in that of `CCS(=O)(=O)c1ccc(CNC(=O)c2ccc(N3CCC(N(C)c4ccc(C(F)(F)F)cc4)C3)cc2)cc1` (stereo not shown) [Example 10, N-(4-(ethylsulfonyl)benzyl)-4-(3-(methyl(4-(trifluoromethyl)phenyl)amino)pyrrolidin-1-yl) benzamide], 7.64; in that of `CCS(=O)(=O)c1ccc(CNC(=O)c2ccc(N3CCC(Nc4ccc(C(F)(F)F)cc4)C3)cc2)cc1` (stereo not shown) [Example 11, N-(4-(ethylsulfonyl)benzyl)-4-(3-((4-(trifluoromethyl)phenyl)amino)pyrrolidin-1-yl)benzamide], 7.47. Compound `CCS(=O)(=O)c1ccc([C@H](CO)NC(=O)c2ccc(N3CCC(Oc4ccc(C(F)(F)F)cc4)C3)cc2)cc1` (stereo partly drawn) [Example 12, N—((R)-1-(4-(ethylsulfonyl)phenyl)-2-hydroxyethyl)-4-(3-(4-(trifluoromethyl)phenoxy)pyrrolidin-1-yl)benzamide] gave a negative-log IC50 (pIC50) of 7.62. In the case of `CCS(=O)(=O)c1ccc([C@H](CO)NC(=O)c2ccc(N3CC[C@H](Oc4ccc(C(F)(F)F)cc4)C3)cc2)cc1` [Example 14, N—((R)-1-(4-(ethylsulfonyl)phenyl)-2-hydroxyethyl)-4-((S)-3-(4-(trifluoromethyl)phenoxy)pyrrolidin-1-yl)benzamide] it was 7.70; in that of `CCOC[C@@H]1CC(Oc2ccc(C(F)(F)F)cc2)CN1c1ccc(C(=O)NCc2ccc(S(=O)(=O)CC)cc2)cc1` (stereo partly shown) [Example 19], 7.73. The compound `CCOC[C@@H]1CC(Oc2ccc(C(F)(F)F)cc2)CN1c1ccc(C(=O)N[C@@H](CO)c2ccc(S(=O)(=O)CC)cc2)cc1` (stereo partly shown) [Example 20] had a pIC50 of 7.85. The compound `CCS(=O)(=O)c1ccc([C@H](CO)NC(=O)c2ccc(N3C[C@H](Oc4ccc(C(F)(F)F)cc4)C[C@H]3CF)cc2)cc1` [Example 24, N—((R)-1-(4-(ethylsulfonyl)phenyl)-2-hydroxyethyl)-4-((2S,4R)-2-(fluoromethyl)-4-(4-(trifluoromethyl)phenoxy)pyrrolidin-1-yl)benzamide] gave a pIC50 of 7.48. Next, `CCS(=O)(=O)c1ccc(CNC(=O)c2ccc(N3C[C@H](Oc4ccc(C(F)(F)F)cc4)C[C@H]3COC)cc2)cc1` [Example 25, N-(4-(ethylsulfonyl)benzyl)-4-((2S,4R)-2-(methoxymethyl)-4-(4-(trifluoromethyl)phenoxy)pyrrolidin-1-yl)benzamide]: 7.70. Compound `CCS(=O)(=O)c1ccc([C@H](CO)NC(=O)c2ccc(N3C[C@H](Oc4ccc(C(F)(F)F)cc4)C[C@H]3COC)cc2)cc1` [Example 26, N—((R)-1-(4-(ethylsulfonyl)phenyl)-2-hydroxyethyl)-4-((2S,4R)-2-(methoxymethyl)-4-(4-(trifluoromethyl)phenoxy)pyrrolidin-1-yl)benzamide] had a pIC50 of 8.00.

For `CCCOC[C@@H]1C[C@@H](Oc2ccc(C(F)(F)F)cc2)CN1c1ccc(C(=O)N[C@@H](CO)c2ccc(S(=O)(=O)CC)cc2)cc1` [Example 27, N—((R)-1-(4-(ethylsulfonyl)phenyl)-2-hydroxyethyl)-4-((2S,4R)-2-(propoxymethyl)-4-(4-(trifluoromethyl)phenoxy)pyrrolidin-1-yl)benzamide], the pIC50 is 7.68. Next, `CCCCOC[C@@H]1C[C@@H](Oc2ccc(C(F)(F)F)cc2)CN1c1ccc(C(=O)N[C@@H](CO)c2ccc(S(=O)(=O)CC)cc2)cc1` [Example 28]: 7.88; `CCS(=O)(=O)c1ccc([C@H](CO)NC(=O)c2ccc(N3C[C@H](Oc4ccc(C(F)(F)F)cc4)C[C@H]3COCCF)cc2)cc1` [Example 29, N—((R)-1-(4-(ethylsulfonyl)phenyl)-2-hydroxyethyl)-4-((2S,4R)-2-((2-fluoroethoxy)methyl)-4-(4-(trifluoromethyl)phenoxy)pyrrolidin-1-yl)benzamide]: 7.98; `CCS(=O)(=O)c1ccc([C@H](CO)NC(=O)c2ccc(N3C[C@H](Oc4ccc(C(F)(F)F)cc4)C[C@H]3COCC(F)(F)F)cc2)cc1` [Example 30, N—((R)-1-(4-(ethylsulfonyl)phenyl)-2-hydroxyethyl)-4-((2S,4R)-2-((2,2,2-trifluoroethoxy)methyl)-4-(4-(trifluoromethyl)phenoxy)pyrrolidin-1-yl)benzamide]: 7.77. In turn, `CCS(=O)(=O)c1ccc([C@H](CO)NC(=O)c2ccc(N3C[C@H](Oc4ccc(C(F)(F)F)cc4)C[C@H]3COCC3CC3)cc2)cc1` [Example 31] gave a negative logarithm of the IC50 (pIC50) of 7.77. With `CCS(=O)(=O)c1ccc([C@H](CO)NC(=O)c2ccc(N3C[C@H](Oc4ccc(C(F)(F)F)cc4)C[C@H]3COCCC#N)cc2)cc1` [Example 32], the negative-log IC50 (pIC50) was 7.72. For `CCS(=O)(=O)c1ccc([C@H](CO)NC(=O)c2ccc(N3C[C@H](Oc4ccc(C(F)(F)F)cc4)C[C@H]3CO[C@H]3CCOC3)cc2)cc1` [Example 33, N—((R)-1-(4-(ethylsulfonyl)phenyl)-2-hydroxyethyl)-4-((2S,4R)-2-((((S)-tetrahydrofuran-3-yl)oxy)methyl)-4-(4-(trifluoromethyl)phenoxy)pyrrolidin-1-yl)benzamide], the pIC50 was 6.88. In turn, `CCS(=O)(=O)c1ccc([C@H](CO)NC(=O)c2ccc(N3C[C@H](Oc4ccc(C(F)(F)F)cc4)C[C@H]3COC3CCOCC3)cc2)cc1` [Example 34, N—((R)-1-(4-(ethylsulfonyl)phenyl)-2-hydroxyethyl)-4-((2S,4R)-2-(((tetrahydro-2H-pyran-4-yl)oxy)methyl)-4-(4-(trifluoromethyl)phenoxy)pyrrolidin-1-yl)benzamide] gave a pIC50 of 6.88.
